# Data taken from article doi:10.1101/2021.06.21.449268v1 (biorxiv, 2021).
# Where two headings read alike, the source gives them in different places.
# Key:
# human i-20S β5i [1] = molecular target: T1, human i-20S β5i (Homo sapiens, UniProt P28062); experiment: fluorogenic peptidase assay; type: biochemical; conditions: 15 μM Ac-ANW-AMC; 0.4 nM i-20S; 0.02% SDS; pH 7.5; β5i active site
# T1 sequence (P28062 73-276): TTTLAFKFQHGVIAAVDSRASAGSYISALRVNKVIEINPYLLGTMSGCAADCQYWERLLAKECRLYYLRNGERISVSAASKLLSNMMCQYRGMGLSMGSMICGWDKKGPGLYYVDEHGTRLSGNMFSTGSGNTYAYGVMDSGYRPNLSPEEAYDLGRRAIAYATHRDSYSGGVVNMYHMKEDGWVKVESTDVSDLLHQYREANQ
# T1 sequence (P20618 29-241 partner): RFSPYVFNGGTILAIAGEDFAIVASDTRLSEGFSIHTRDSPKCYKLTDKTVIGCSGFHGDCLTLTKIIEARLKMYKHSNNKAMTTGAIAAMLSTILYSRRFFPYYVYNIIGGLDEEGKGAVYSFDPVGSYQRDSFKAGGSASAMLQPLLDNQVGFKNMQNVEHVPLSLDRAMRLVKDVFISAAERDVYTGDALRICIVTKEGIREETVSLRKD
# Pf20S β5 [2] = molecular target: T2, Pf20S β5 (Plasmodium falciparum, UniProt Q8IJT1); experiment: fluorogenic peptidase assay; type: biochemical
# T2 sequence (Q8IJT1 61-271): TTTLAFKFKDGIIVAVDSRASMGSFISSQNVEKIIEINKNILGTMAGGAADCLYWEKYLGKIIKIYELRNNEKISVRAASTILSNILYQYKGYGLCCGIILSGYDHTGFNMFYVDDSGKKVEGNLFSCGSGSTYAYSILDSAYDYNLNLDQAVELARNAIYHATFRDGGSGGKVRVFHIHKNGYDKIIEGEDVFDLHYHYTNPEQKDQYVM
# T2 sequence (A0A5K1K7U1 29-240 partner): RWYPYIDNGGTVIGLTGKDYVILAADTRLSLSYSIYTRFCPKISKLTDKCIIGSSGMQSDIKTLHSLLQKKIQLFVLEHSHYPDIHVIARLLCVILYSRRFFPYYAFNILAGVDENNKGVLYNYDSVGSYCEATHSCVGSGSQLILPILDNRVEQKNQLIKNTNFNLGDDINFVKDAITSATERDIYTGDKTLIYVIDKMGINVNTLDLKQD
# human c-20S β5c [3] = molecular target: T3, human c-20S β5c (Homo sapiens, UniProt P28074); experiment: fluorogenic peptidase assay; type: biochemical; conditions: 25 μM suc-LLVY-AMC; 0.2 nM c-20S; 0.02% SDS; pH 7.5; β5c active site
# T3 sequence (P28074 60-263): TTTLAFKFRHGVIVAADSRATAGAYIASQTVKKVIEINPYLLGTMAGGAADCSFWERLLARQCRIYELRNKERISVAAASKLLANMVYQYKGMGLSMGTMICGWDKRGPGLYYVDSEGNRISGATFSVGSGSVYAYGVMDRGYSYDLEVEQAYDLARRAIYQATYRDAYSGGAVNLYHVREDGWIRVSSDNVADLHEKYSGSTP
# T3 sequence (P20618 29-241 partner): T1 sequence (P20618 29-241 partner)
# human c-20S β5c [4] = molecular target: T3, human c-20S β5c; conditions: read-out: IC50 (nM) c-20S; inhibitor
# Pf20S β5 [5] = molecular target: T2, Pf20S β5; experiment: biochemical
# human i-20S β5i [6] = molecular target: T1, human i-20S β5i; conditions: read-out: IC50 (nM) i-20S; inhibitor
# [7] = tested on: Plasmodium falciparum Pf3D7; experiment: microbe, parasite or virus in culture; design: species or system P. falciparum 3D7 in human red blood cells; conditions: Erythrocyte, read-out: EC50 (nM) Pf3D7
SMILES,IC50 (human i-20S β5i [1]) [nM],IC50 (Pf20S β5 [2]) [nM],IC50 (human c-20S β5c [3]) [nM],IC50 (human c-20S β5c [4]) [nM],IC50 (Pf20S β5 [5]) [nM],IC50 (human i-20S β5i [6]) [nM],EC50 [7] [nM]
C[C@H]1[C@@H](CC(=O)N[C@@H](CC(=O)NC(C)(C)C)C(=O)NCCNC(=O)c2cc(-c3ccccc3F)ccc2F)O[C@@H]2O[C@@]3(C)CC[C@H]4[C@H](C)CC[C@@H]1[C@@]24OO3 [ATZ1],650 ± 94,63.2 ± 11,3600,–,–,–,–
C[C@H]1[C@@H](CC(=O)NCC(=O)N[C@@H](CC(=O)NC(C)(C)C)C(=O)NCCNC(=O)c2cc(-c3ccccc3F)ccc2F)O[C@@H]2O[C@@]3(C)CC[C@H]4[C@H](C)CC[C@@H]1[C@@]24OO3 [ATZ2],73 ± 19,–,210 ± 40,–,–,–,–
C[C@H]1[C@@H](CC(=O)NCCC(=O)N[C@@H](CC(=O)NC(C)(C)C)C(=O)NCCNC(=O)c2cc(-c3ccccc3F)ccc2F)O[C@@H]2O[C@@]3(C)CC[C@H]4[C@H](C)CC[C@@H]1[C@@]24OO3 [ATZ3],260 ± 51,2.4 ± 0.4,–,–,–,–,–
C[C@H]1[C@@H](CC(=O)NCCCC(=O)N[C@@H](CC(=O)NC(C)(C)C)C(=O)NCCNC(=O)c2cc(-c3ccccc3F)ccc2F)O[C@@H]2O[C@@]3(C)CC[C@H]4[C@H](C)CC[C@@H]1[C@@]24OO3 [ATZ4],200 ± 57,–,890 ± 140,–,–,–,–
C[C@H]1[C@H](OC(=O)CCC(=O)O)O[C@@H]2O[C@@]3(C)CC[C@H]4[C@H](C)CC[C@@H]1[C@@]24OO3 [Artesunate],–,–,–,> 100000,> 100000,> 100000,6.2 ± 4
CC(C)(C)NC(=O)C[C@H](NC(=O)CCCNC(=O)OC(C)(C)C)C(=O)NCCNC(=O)c1cc(-c2ccccc2F)ccc1F [PI01],200 ± 46,–,2000,–,–,–,–
"C[C@H]1[C@H](OC(=O)CCC(=O)N[C@@H](CC(=O)NC(C)(C)C)C(=O)NCCNC(=O)c2cc(-c3ccccc3)ccn2)O[C@@H]2O[C@@]3(C)CC[C@H]4[C@H](C)CC[C@@H]1[C@@]24OO3 [WZ-06, (3R,5aS,6R,8aS,9R,10S,12R,12aR)-3,6,9-trimethyldecahydro-12H-3,12-epoxy[1,2]dioxepino[4,3-i]isochromen-10-yl 4-(((S)-4-(tert-butylamino)-1,4-dioxo-1-((2-(4-phenylpicolinamido)ethyl)amino)butan-2-yl)amino)-4-oxobutanoate]",–,–,–,–,13.5 ± 7.6,1100,3.6 ± 0.01
C[C@H]1[C@H](OC(=O)CCC(=O)N[C@@H](CC(=O)NC(C)(C)C)C(=O)NCCNC(=O)c2cc(-c3ccccc3)ccn2)O[C@@H]2O[C@@]3(C)CC[C@H]4[C@H](C)CC[C@@H]1[C@@]24OO3 [WZ-06],–,6,–,–,–,–,–
"C[C@H]1[C@H](OC(=O)CCC(=O)N[C@@H](CC(=O)NC(C)(C)C)C(=O)NCCNC(=O)c2cc(-c3ccccc3F)ccc2F)O[C@@H]2O[C@@]3(C)CC[C@H]4[C@H](C)CC[C@@H]1[C@@]24OO3 [WZ-13, (3R,5aS,6R,8aS,9R,10S,12R,12aR)-3,6,9-trimethyldecahydro-12H-3,12-epoxy[1,2]dioxepino[4,3-i]isochromen-10-yl 4-(((S)-4-(tert-butylamino)-1-((2-(2',4-difluoro-[1,1'-biphenyl]-3-carboxamido)ethyl)amino)-1,4-dioxobutan-2-yl)amino)-4-oxobutanoate]",–,–,–,440 ± 110,5.5 ± 3.8,158 ± 50,2.5 ± 0.7
C[C@H]1[C@H](OC(=O)CCC(=O)N[C@@H](CC(=O)NC(C)(C)C)C(=O)NCCNC(=O)c2cc(-c3ccccc3F)ccc2F)O[C@@H]2O[C@@]3(C)CC[C@H]4[C@H](C)CC[C@@H]1[C@@]24OO3 [WZ-13],–,2,–,–,–,–,–
"CC(C)(C)NC(=O)C[C@H](NC(=O)CCC(=O)O)C(=O)NCCNC(=O)c1cc(-c2ccccc2F)ccc1F [WZ-20, (S)-4-((4-(tert-butylamino)-1-((2-(2',4-difluoro-[1,1'-biphenyl]-3-carboxamido)ethyl)amino)-1,4-dioxobutan-2-yl)amino)-4-oxobutanoic acid]",–,–,–,34300,6 ± 0.005,3490,50.8 ± 0.7
